Measurements published in US20260183432A1, “IMAGING AGENTS FOR DETECTING CD206+ MACROPHAGES” (THE GENERAL HOSPITAL CORPORATION, priority 2022, published 2026).
“Also recorded” adds a separate entry of the source. One block for each molecule: values may come before it.

What was measured:
[1] = biological target: T1, CD206 (Homo sapiens, UniProt P22897); conditions: read-out: binding affinity to CD206 (IC50); cited from earlier work
T1 sequence (P22897 19-1456): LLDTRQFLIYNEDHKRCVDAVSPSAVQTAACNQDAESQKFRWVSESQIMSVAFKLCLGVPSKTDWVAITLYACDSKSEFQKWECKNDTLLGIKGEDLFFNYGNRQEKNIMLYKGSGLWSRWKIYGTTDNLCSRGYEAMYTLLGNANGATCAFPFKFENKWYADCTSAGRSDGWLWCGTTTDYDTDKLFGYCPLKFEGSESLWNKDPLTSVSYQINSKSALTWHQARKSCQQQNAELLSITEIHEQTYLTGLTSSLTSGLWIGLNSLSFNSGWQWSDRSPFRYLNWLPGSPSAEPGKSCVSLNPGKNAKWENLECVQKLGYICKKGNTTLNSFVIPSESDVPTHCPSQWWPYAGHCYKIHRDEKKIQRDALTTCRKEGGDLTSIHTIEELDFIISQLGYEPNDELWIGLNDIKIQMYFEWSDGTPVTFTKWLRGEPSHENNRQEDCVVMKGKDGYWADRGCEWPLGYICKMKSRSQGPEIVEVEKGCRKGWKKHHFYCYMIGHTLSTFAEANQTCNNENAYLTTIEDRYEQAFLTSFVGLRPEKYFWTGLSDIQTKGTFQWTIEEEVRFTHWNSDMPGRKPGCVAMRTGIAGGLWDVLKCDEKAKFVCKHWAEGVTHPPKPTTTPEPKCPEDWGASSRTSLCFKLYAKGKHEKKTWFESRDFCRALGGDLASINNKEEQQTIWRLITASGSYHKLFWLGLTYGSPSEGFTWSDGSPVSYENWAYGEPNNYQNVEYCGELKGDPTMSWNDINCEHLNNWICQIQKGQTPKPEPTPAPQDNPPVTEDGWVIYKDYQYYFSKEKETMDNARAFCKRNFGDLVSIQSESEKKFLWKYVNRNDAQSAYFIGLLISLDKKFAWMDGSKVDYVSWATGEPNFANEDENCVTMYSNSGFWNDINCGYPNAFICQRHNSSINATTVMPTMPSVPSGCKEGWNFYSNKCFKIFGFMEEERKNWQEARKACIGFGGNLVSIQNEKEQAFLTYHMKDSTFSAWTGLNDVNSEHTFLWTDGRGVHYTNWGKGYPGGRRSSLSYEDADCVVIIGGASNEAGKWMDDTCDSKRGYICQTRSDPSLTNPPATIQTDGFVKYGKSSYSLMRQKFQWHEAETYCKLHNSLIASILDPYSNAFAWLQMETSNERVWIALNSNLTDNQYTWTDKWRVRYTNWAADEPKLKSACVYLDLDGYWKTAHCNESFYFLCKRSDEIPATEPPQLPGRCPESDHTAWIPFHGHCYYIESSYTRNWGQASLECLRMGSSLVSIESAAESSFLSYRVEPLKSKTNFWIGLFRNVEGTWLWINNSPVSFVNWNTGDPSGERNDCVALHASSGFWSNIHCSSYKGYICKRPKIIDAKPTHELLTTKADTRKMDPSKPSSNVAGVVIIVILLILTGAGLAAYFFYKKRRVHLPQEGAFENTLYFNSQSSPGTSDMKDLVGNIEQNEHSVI

[2] = test system: CD206+ macrophages; assay: MR imaging in mouse model of cutaneous wound healing; type: in vivo; conditions: for contrast-to-noise ratio (CNR) time course: wildtype mice, day 7 after wound induction
Description: Eight-to nine-week-old C57BL/6J female mice were used for MRI of wound healing and glioma (Jackson Laboratory, ME). The generation of wound healing and glioma is described in Examples 14 and 15, respectively. The mice with subcutaneous wounds were imaged on days 1, 4, and 7 longitudinally or on day 7. Mice with glioma were imaged on the third week. All the mice were imaged pre- and at 0, 15, 30, 45 and 60 min after 0.3 mmol/kg of Mann2-DTPA-Gd or MannGdFish was administered intravenously via a tail vein using serial T1 rapid acquisition with relaxation enhancement (RARE) sequence (TR: 935.77 ms, TE: 13.59 ms, averages: 12, rare factor: 4, 256×256×48 matrix size, 0.156×0.156×1 mm^3 voxel size) with chemical fat suppression using a Hermitian pulse shape with an 8.253 ms pulse and 701.19 Hz bandwidth 3.5 ppm down from the water peak and respiratory gating on a 4.7 T small animal MR scanner (Bruker, Cambridge, MA) with a 3 cm quadrature volume coil (Rapid MR International, Germany). Regions of interest (ROIs) were drawn and the contrast-to-noise ratios (CNRs, CNRpre-contrast subtracted) were calculated by a radiologist with over 20 years of experience blinded to the identity of the imaging agent used and the strain of the mice (n=3 per group).
Wound healing procedure. Seven-to ten-week-old C57BL/6J female mice (The Jackson Laboratories, ME) and mannose-receptor deficient mice were used in this study. A circular outline on the back of a mouse was made with a 4 mm biopsy punch (Kai Medical, Japan) under anesthesia using isoflurane. Then a full-thickness excisional wound was generated that extended through the subcutaneous tissue. A silicone splint was glued over the wound, anchored with 6-0 nylon sutures, and covered with a transparent occlusive dressing (OpSite). Xylazine/norepinephrine (100 μL) were intraperitoneally injected twice a day for two days and the mice were monitored daily.

[3] = test system: M1 and M2 macrophages differentiated from Raw 264.7 cells; assay: fluorescence imaging of M1- and M2-differentiated macrophages; type: cell-based; conditions: incubated at 37° C.
Description: M1- and M2-differentiated macrophages were incubated with 1/1000 dilution of MR2-cy5 stock solution (10 mM in DMSO) for 1 h at 37° C. and counter-stained with DAPI (4′,6-diamidino-2-phenylindole, Invitrogen). The cells were washed with PBS and fluorescence imaging was captured with a digital microscope (Nikon Eclipse TE2000-U).
M1 and M2 polarized differentiation. Raw 264.7 cells (Passage 8 from the cell core of center for Systems Biology at Massachusetts General Hospital, Boston) in 10 mL petri dishes were cultured with Dulbecco's modified eagle medium with high glucose (DMEM, Thermo Fisher Scientific, NY, USA) containing 10% of fetal bovine serum (FBS, Sigma-Aldrich, MO, USA) and 0.5% streptomycin/penicillin (Cellgro) until reaching 80% of confluency. Then differentiating media containing IFN-gamma (100 ng/ml the above medium) for M1 polarization and IL-4 (100 ng/mL) for M2 polarization were added to the dishes, respectively. After 24 h, the M1 and M2 polarized macrophages were ready for the following experiments.

[4] = blood half-life by ICP-MS; type: in vivo, mouse; conditions: two-phase exponential model
Description: (§1) 6-10 weeks old of C57BL/6J mice were administered with MannGdFish intravenously 24 h after the wound injury. At 3 h and on day 7 after induction, mice were sacrificed and major organs including wound skins and the counter skins were harvested (n=3 for each time point). Blood samples were collected before and at different time points after the administration of MannGdFish (n=6) and centrifuged to obtain the plasma. The samples were weighed, treated with nitric acid, and subjected to inductively coupled plasma mass spectrometry (ICP-MS) to determine the amount of gadolinium as described in Example 6.

[5] = biodistribution and retention by ICP-MS in mice with cutaneous wound; type: in vivo, mouse
Description: as §1

[6] = test system: RAW 264.7 cells; assay: cytotoxicity, MTT assay; type: cell-based; conditions: n=3
Description: The cytotoxicity of MannGdFish was evaluated using RAW264.7 cells (Passage 8 from the cell core of the Center for Systems Biology at Massachusetts General Hospital, Boston) with an MTT assay as described by Wang et. al (J Med Chem 64, 5874-5885 (2021)) (n=3).

[7] = in vitro relaxivity (r1), Bruker Minispect; type: physicochemical
Description: Relaxation time (T1) of Mann2-DTPA-Gd/MannGdFish at concentrations of 0.1, 0.2, 0.3, 0.5, 0.6, 0.75, and 1 mM in PBS was measured on the Bruker Minispect (Bruker Analytics, MA) at 0.47 T (20 MHz) at 40° C. The slope value of the linear function of 1/T1 (s) to their corresponding concentrations is defined as the relaxivity (n=3 for each concentration).

[8] = PET imaging of [68]Ga-MannGaFish; conditions: in vivo

SMILES: O=C[C@@H](O)[C@@H](O)[C@H](O)[C@H](O)CO [D-mannose]
IC50 [1]: 5.5 mM

SMILES: O=C([O-])CN1CCN(CC(=O)[O-])CCN(CC(=O)O)CCN(CC(=O)[O-])CC1.[Gd+3] [DOTA-Gd, reference compound]
contrast-to-noise ratio (CNR) time course [2]: decreased significantly 15 min post-injection; also recorded: decreased rapidly after peaking at 15 min post-injection

SMILES: CC[N+]1=C(/C=C/C=C/C=C2/N(CCCCCC(=O)NC3C(O)OC(CO)C(O)C3O)c3ccc(S(=O)(=O)O)cc3C2(C)C)C(C)(C)c2cc(S(=O)(=O)[O-])ccc21 (stereo not shown) [MR1-cy5]
fluorescence signal, M2 versus M1 macrophages (specificity) [3]: low specificity to M2 macrophages

SMILES: CC[N+]1=C(/C=C/C=C/C=C2/N(CCCCCC(=O)NC(COC3OC(CO)C(O)C(O)C3O)COC3OC(CO)C(O)C(O)C3O)c3ccc(S(=O)(=O)O)cc3C2(C)C)C(C)(C)c2cc(S(=O)(=O)[O-])ccc21 (stereo not shown) [MR2-cy5]
fluorescence signal, M2 versus M1 macrophages (specificity) [3]: much higher signal from M2 macrophages than that from M1 macrophages; also recorded: much higher signal in M2 macrophages compared to that in M1 macrophages

blood half-life, fast phase [4]: 0.3 min | blood half-life, slow phase [4]: 6.1 min | accumulation or retention of Gd in the body ([5]; 3 h and day 7, ICP-MS): < 0.5 nmol Gd per gram tissue | relaxivity (r1) [7]: 5.2 mmol⁻¹ s⁻¹
SMILES: O=C([O-])CN1CCN(CC(=O)[O-])CCN(C(CCC(=O)NC(COC2OC(CO)C(O)C(O)C2O)COC2OC(CO)C(O)C(O)C2O)C(=O)[O-])CCN(CC(=O)O)CC1.[Gd+3] (stereo not shown) [MannGdFish]
gadolinium in wound versus normal skin ([5]; 3 h after administration, wound 24 h post-injury): low and not significantly different compared to that in the normal skin | major organs containing gadolinium ([5]; 3 h and day 7): liver and spleen being the major organs containing gadolinium | gadolinium in wound versus normal skin ([5]; day 7): higher in the wound than that in the normal skin | cytotoxicity: concentration up to which no cytotoxic effect was observed [6]: > 5 mM | MR signal compared to DOTA-Gd ([2]; 60 min, wound healing day 7): much higher in comparison with that of DOTA-Gd; also recorded: much higher compared to that of DOTA-Gd | contrast-to-noise ratio (CNR) time course [2]: slow decrease of CNR | CNR compared to Mann2-DTPA-Gd ([2]; wildtype wound healing mice, day 7): slightly higher CNRs and similar dynamic profile as that of Mann2-DTPA-Gd; also recorded: slightly higher compared to that of Mann2-DTPA-Gd

uptake in organs on PET imaging [8]: low uptakes in the lungs and heart
SMILES: O=C([O-])CN1CCN(CC(=O)[O-])CCN(C(CCC(=O)NC(COC2OC(CO)C(O)C(O)C2O)COC2OC(CO)C(O)C(O)C2O)C(=O)[O-])CCN(CC(=O)O)CC1.[68Ga+3] (stereo not shown) [[68]Ga-MannGaFish]
